# Reference: patent US4667032A, “Phenothiazone derivatives and analogs” (Merck Frosst Canada, Inc., priority 1985, dated 1987)
# Legend:
# asthmatic rats = assay: Asthmatic Rat Assay (duration of dyspnoea after egg albumin aerosol); type: in vivo; conditions: for % inhibition (Ed50 column): p.o.; for ED50: Rattus norvegicus
# Excerpt: Rats were obtained from an inbred line of asthmatic rats. Both female and male rats from 200 to 300 g were used.
# Egg albumin (EA), grade V, crystallized and lyophilized, was obtained from Sigma Chemical Co., St. Louis. Bordetella pertussis vaccine, containing 30×10^9 killed bacteria per ml was obtained from the Institut Armand-Frappier, Laval des Rapides, Quebec. Aluminum hydroxide was obtained from the Regis Chemical Company, Chicago.
# The challenge and subsequent respiratory recordings were carried out in a clear plastic box with internal dimensions 10×6×4 inches. The top of the box was removable; in use, it was held firmly in place by four clamps and an airtight seal was maintained by a soft rubber gasket. […] A Fleisch No. 0000 pneumotachograph was inserted into one end of the box and coupled to a Grass volumetric pressure transducer (PT5-A) which was then connected to a Beckman Type T Dynograph through appropriate couplers. While aerosolizing the antigen, the outlets were open and the pneumotachograph was isolated from the chamber. The outlets were closed and the pneumotachograph and the chamber were connected during the recording or the respiratory patterns. For challenge, 2 ml of a 3% solution of antigen in saline was placed into each nebulizer and the aerosol was generated with air from a small Potter diaphragm pump operating at 10 psi and a flow of 8 liters/minute.
# Rats were sensitized by injecting (s.c.) 1 ml of a suspension containing 1 mg EA and 200 mg aluminum hydroxide in saline. Simultaneously, they received an injection (i.p.) of 0.5 ml of B. pertussis vaccine. They were used between days 14 and 18 postsensitization. In order to eliminate the serotonin component of the response, rats were pretreated intravenously 5 minutes prior to aerosol challenge with […] methylserzide. Rats were then exposed to an aerosol of 3% EA in saline for exactly 1 minute, then their respiratory profiles were recorded for a further 25-30 minutes. The duration of continuous dyspnoea was measured from the respiratory recordings.
# Compounds were generally administered either intraperitoneally 1 hour prior to challenge or orally 11/2 hours prior to challenge. They were either dissolved in dimethylsulfoxide or suspended in 0.1% methocel and 0.5% Tween 80. The volume injected has 2 ml/kg (intraperitoneally) or 10 ml/kg (orally). Prior to oral treatment rats were starved overnight. Their activity was determined in terms of their ability to decrease the duration of symptoms of dyspnoea in comparison with a group of vehicle-treated controls. Usually, a compound was evaluated at a series of doses and an ED50 was determined. This was defined as the dose (mg/kg) which would inhibit the duration of symptoms by 50%.
# [1] = tested on: tracheal chain of sensitized guinea pigs; assay: Antigen Challenge 'in vitro' Assay (egg albumin contraction of sensitized guinea pig tracheal chain); conditions: 10 μg (μg/ml)
# Method: Male guinea pigs weighing 300-350 g were sensitized by injecting (I.P.) 0.5 ml of a suspension containing 0.4 mg of egg albumin (Ovalbumin, Grade V, Sigma Chemical Co.) and 4.0 g aluminum hydroxide in 19.6 ml of saline. Two weeks were permitted for sensitization to occur.
# Three sensitized guinea pigs were stunned and exsanguinated. The tracheas were removed, freed of adhering tissue and divided longitudinally by cutting through the cartilaginous tissue directly opposite the muscle insertion. Each opened trachea was then transected between every second cartilage. Four of the cut sections were tied together, end to end, in a series with No. 7 silk thread ensuring that the tracheal muscles were all in the same vertical plane. Thus, each chain consisted of tissue from three different animals.
# The chain so formed was then suspended under 1 g of tension (by silk ties at each end) in a 20 ml organ bath containing 10 ml of modified* Krebs-Henseleit buffer solution gassed with 95% O2 and 5% CO2 at 37° C. Mepyramine (0.55 μg/ml) and indomethacin (2.67 μg/ml) were added to the buffer to avoid the contribution of histamine receptors and cyclooxygenase products to the contraction. To record responses one end of the tracheal chain was attached to a Gould-Statham UC-2 force displacement transducer which was connected to a Beckman Type R-dynograph.The preparations were allowed to equilibrate for one hour during which time the tissues were automatically washed (10 ml volume displacement) every 6 minutes.
# After the equilibration period the tissues were primed with methacholine (3 μg/ml; 1.5×10^-5 M), washed and allowed to recover to baseline. The tissues were treated again with a second dose of methacholine, washed, allowed to return to baseline and washed for an additional hour.
# Two chains were used as a control. These were incubated in a concentration of egg albumin sufficient to induce an average contraction of 50-80% of the methacholine response.
# Each compound to be tested was added to two other baths (at a final concentration in each bath of 10 μg/ml) 15 minutes prior to challenging the fresh chains with egg albumin.
# The response of the challenged tissue was expressed as a percentage of the methacholine maximum. The % inhibition for each compound was then calculated. Compounds which at 10 μg/ml (final conc.) inhibited the egg albumin response by 50% or more were retested at a lower concentration.
# [2] = tested on: rat paw, PAF-induced hyperalgesia; assay: PAF-Induced Hyperalgesia Assay; type: in vivo, Female Sprague-Dawley rats; conditions: for Vocalization Threshold: 3 hr after PAF, Mean ± S.E.M., n = 10
# Method: Female Sprague-Dawley rats, 35-40 g were fasted overnight. Platelet activating factor, PAF, (L-lecithin B-acetyl O-alkyl) 1 μg/0.1 ml was given by subplantar injection in the rat paw. The compounds to be evaluated were homogenized in Aqueous Vehicle (0.9% benzyl alcohol, 0.5% Tween 80 and 0.4% methylcellulose) and administered orally in a volume of 0.1 ml, 30 minutes prior to PAF.
# Animals were tested 1, 2, 3 and 4 hours after PAF administration. The vocalization threshold, defined as the pressure (mmHg) needed to evoke a squeak response, was recorded for both the injected and contralateral paw. No animal was subjected to pressure greater than 60 mmHg. Hyperalgesia is defined as a decrease in vocalization threshold as compared to a normal paw. Percent inhibition of hyperalgesia was calculated as the proportion of animals with vocalization thresholds greater than 200% of controls.
# ^a mmHg Mean ± S.E.M., n = 10 Reading taken 3 hr after injection o
# PAF, (3.5 hr. after administration of compound).
# [3] = tested on: rat paw, Brewer's yeast hyperalgesia; assay: Brewer's Yeast Hyperalgesia Assay; type: in vivo, Female Sprague-Dawley rats; conditions: for Vocalization Threshold: mean, n = 10
# Method: The standard method* for yeast hyperalgesia was used. Female Sprague-Dawleyrats, […] were fasted overnight. A 5% solution (volume 0.1 ml) of Brewer's yeast was injected into the rat paw. The compound was homogenized in aqueous vehicle and given orally 2 hours after yeast. Vocalization thresholds were recorded 1 hours after drug (3 hours after yeast).
# ^a mmHg: mean ± S.E.M. n = 10
# [4] = tested on: tracheal chain of sensitized guinea pigs; assay: Antigen Challenge 'in vitro' Assay (egg albumin contraction of sensitized guinea pig tracheal chain); conditions: Table 4
# [5] = tested on: Mouse peritoneal macrophages; assay: Mouse Macrophage Assay (leukotriene C4 / PGE2 / 6-keto PGF1α formation, zymosan stimulated); type: cell-based; conditions: at 0.05 mg/ml, read-out: Macrophage, % at stated concentration
# Method: Mouse peritoneal macrophages were treated sequentially with arachidonic acid (labelled with tritium); the compound being evaluated as an inhibitor, and a stimulator (zymosan). Metabolites derived from arachidonic acid PGE2 6-keto PH-F1α and leukotriene C4) were separated from the incubation medium by extraction and chromatography, and then quantitated by determining the amount of radioactivity (cpm) associated with each of them. […] (This protocol is identical to that described in the reference except that the radioactivity herein associated with the LTC4 was determined by counting an aliquot of the final aqueous solution directly rather than chromatographing it first).
# Reference: Humes, J. L. et al., J. Biol. Chem. 257, 1591-4, (1982).
molecule,measurement,setting,value
O=C1C=CC2=Nc3ccccc3S(=O)(=O)C2=C1O [E],% inhibition (Ed50 column),asthmatic rats; at 1.5 mg/kg,37%
"4-Chloro-2,7-dimethoxy-3H-phenothiazin-3-one [Example 3]",In Vitro Antigen Challenge Test % Inhibition,[1],25%
O=c1ccc2nc3ccccc3sc-2c1Cl [B],ED50,asthmatic rats; po,1.5 mg/kg
"O=c1ccc2nc3ccccc3sc-2c1Cl [Example 2, 4-Chloro-3H-phenothiazin-3-one]",% Inhibition,"[2]; Experiment 1, 0.01 mg/kg p.o.",40%
same,Vocalization Threshold,"[2]; Experiment 1, 0.01 mg/kg p.o.",28.2 ± 5.2 mmHg
same,% Inhibition,"[2]; Experiment 1, 0.03 mg/kg p.o.",80%
same,Vocalization Threshold,"[2]; Experiment 1, 0.03 mg/kg p.o.",40.2 ± 5.0 mmHg
same,% Inhibition,"[2]; Experiment 1, 0.1 mg/kg p.o.",80%
same,Vocalization Threshold,"[2]; Experiment 1, 0.1 mg/kg p.o.",37.4 ± 3.9 mmHg
same,% Inhibition,"[2]; Experiment 1, 0.3 mg/kg p.o.",90%
same,Vocalization Threshold,"[2]; Experiment 1, 0.3 mg/kg p.o.",45.4 ± 3.7 mmHg
same,% Inhibition,"[2]; Experiment 1, 3.0 mg/kg p.o.",100%
same,Vocalization Threshold,"[2]; Experiment 1, 3.0 mg/kg p.o.",46.0 ± 3.0 mmHg
same,% Inhibition,"[2]; Experiment 2, 0.001 mg/kg p.o.",0%
same,Vocalization Threshold,"[2]; Experiment 2, 0.001 mg/kg p.o.",10.0 ± 1.6 mmHg
same,% Inhibition,"[2]; Experiment 2, 0.003 mg/kg p.o.",30%
same,Vocalization Threshold,"[2]; Experiment 2, 0.003 mg/kg p.o.",16.4 ± 2.8 mmHg
same,% Inhibition,"[2]; Experiment 2, 0.01 mg/kg p.o.",30%
same,Vocalization Threshold,"[2]; Experiment 2, 0.01 mg/kg p.o.",18.0 ± 2.9 mmHg
same,% Inhibition,"[2]; Experiment 2, 0.1 mg/kg p.o.",60%
same,Vocalization Threshold,"[2]; Experiment 2, 0.1 mg/kg p.o.",29.6 ± 4.4 mmHg
same,% Inhibition,[3]; 0.3 mg/kg p.o.,30%
same,Vocalization Threshold,[3]; 0.3 mg/kg p.o.,17.6 mmHg
same,% Inhibition,[3]; 1.0 mg/kg p.o.,30%
same,Vocalization Threshold,[3]; 1.0 mg/kg p.o.,19.4 mmHg
same,% Inhibition,[3]; 3.0 mg/kg p.o.,60%
same,Vocalization Threshold,[3]; 3.0 mg/kg p.o.,30.0 mmHg
same,% Inhibition,[3]; 10.0 mg/kg p.o.,70%
same,Vocalization Threshold,[3]; 10.0 mg/kg p.o.,28.6 mmHg
same,% Inhibition,[3]; 30.0 mg/kg p.o.,80%
same,Vocalization Threshold,[3]; 30.0 mg/kg p.o.,32.6 mmHg
"4-Chloro-2,7-dimethyl-3H-phenothiazin-3-one [Example 5]",In Vitro Antigen Challenge Test % Inhibition,[1],45%
O=c1ccc2nc3ccccc3sc-2c1 [C],ED50,asthmatic rats; ip,~5 mg/kg
4-Chloro-7-methyl-3H-phenothiazin-3-one [Example 7],In Vitro Antigen Challenge Test % Inhibition,[4]; 10 mg (mg/ml),37%
COc1ccc2nc3cc(OC)c(=O)c(Br)c-3sc2c1 [D],ED50,asthmatic rats; po,1 mg/kg
O=c1cc2sc3ccccc3nc-2c2ccccc12 [F],% inhibition (Ed50 column),asthmatic rats; at 5 mg/kg,36%
7-Fluoro-2-methoxy-3H-phenothiazin-3-one [Example 13],In Vitro Antigen Challenge Test % Inhibition,[4]; 3 mg (mg/ml),54%
Cc1cc2nc3ccc(N(C)C)cc3sc-2cc1=N,inhibition at 50 µg/mL,[5],10%
same,In Vitro Antigen Challenge Test % Inhibition,[4]; 10 mg (mg/ml),24%
O=c1ccc2nc3ccccc3sc-2c1Cl [drawing 40],ED50,asthmatic rats; ip,0.5 mg/kg
7-Fluoro-3H-phenothiazin-3-oone [Example 11],In Vitro Antigen Challenge Test % Inhibition,[4]; 3 mg (mg/ml),23%
